Measurements taken from PMC10582325 (Frontiers in Pharmacology, 2023).
Like-named read-outs stand apart in the source and are kept apart here.

Assays:
[1] = Plasma concentration 3 h post dose in murine model of tuberculosis; format: in vivo, BALB/c mice infected with M. tuberculosis H37Rv; details: TB model
CYP3A4 = CYP3A4 (Homo sapiens, UniProt P08684); details: for IC50: read-out: Inhibition, IC50, HLM
[2] = Lung and spleen tissue exposure in BALB/c mice
[3] = Stability of BDQ, M2 and TBI-166 in mice plasma (LC-MS/MS validation)
CYP1A2 = molecular target: T1, CYP1A2 (Homo sapiens, UniProt P05177); test: Direct CYP inhibition in human liver microsomes with marker probe substrates; details: read-out: Inhibition, IC50; HLM, CYP1A2 probe substrate
T1 sequence (P05177 1-516): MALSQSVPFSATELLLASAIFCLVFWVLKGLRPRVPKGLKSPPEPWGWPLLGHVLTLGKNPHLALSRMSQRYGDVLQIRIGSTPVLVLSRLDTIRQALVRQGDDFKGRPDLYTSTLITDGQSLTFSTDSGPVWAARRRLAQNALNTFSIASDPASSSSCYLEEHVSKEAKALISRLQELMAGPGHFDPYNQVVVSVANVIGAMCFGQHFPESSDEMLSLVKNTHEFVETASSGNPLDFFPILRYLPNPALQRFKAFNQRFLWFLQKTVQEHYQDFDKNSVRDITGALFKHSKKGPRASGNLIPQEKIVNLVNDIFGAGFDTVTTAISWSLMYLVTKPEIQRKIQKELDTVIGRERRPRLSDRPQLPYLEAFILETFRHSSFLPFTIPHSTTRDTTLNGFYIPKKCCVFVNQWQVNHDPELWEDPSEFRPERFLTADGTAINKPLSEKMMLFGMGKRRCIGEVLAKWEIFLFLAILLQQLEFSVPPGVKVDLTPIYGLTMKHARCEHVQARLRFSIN

CYP2A6 = molecular target: T2, CYP2A6 (Homo sapiens, UniProt P11509); test: as above; details: read-out: Inhibition, IC50; HLM, CYP2A6 probe substrate
T2 sequence (P11509 1-494): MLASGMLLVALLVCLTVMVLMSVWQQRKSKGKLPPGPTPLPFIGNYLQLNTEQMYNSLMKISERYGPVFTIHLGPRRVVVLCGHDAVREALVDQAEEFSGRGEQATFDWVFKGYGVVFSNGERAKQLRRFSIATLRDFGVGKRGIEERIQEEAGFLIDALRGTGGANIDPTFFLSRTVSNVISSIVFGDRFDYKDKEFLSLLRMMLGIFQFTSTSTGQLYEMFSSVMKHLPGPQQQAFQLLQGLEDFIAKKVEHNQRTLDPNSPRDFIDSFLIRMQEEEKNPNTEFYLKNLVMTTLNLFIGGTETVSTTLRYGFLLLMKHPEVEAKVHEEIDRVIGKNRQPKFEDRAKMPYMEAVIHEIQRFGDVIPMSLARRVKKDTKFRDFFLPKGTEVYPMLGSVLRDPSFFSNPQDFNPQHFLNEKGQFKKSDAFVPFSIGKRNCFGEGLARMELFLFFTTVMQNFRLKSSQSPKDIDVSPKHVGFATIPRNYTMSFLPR

CYP2C8 = molecular target: T3, CYP2C8 (Homo sapiens, UniProt P10632); test: as above; details: read-out: Inhibition, IC50; HLM, CYP2C8 probe substrate
T3 sequence (P10632 1-490): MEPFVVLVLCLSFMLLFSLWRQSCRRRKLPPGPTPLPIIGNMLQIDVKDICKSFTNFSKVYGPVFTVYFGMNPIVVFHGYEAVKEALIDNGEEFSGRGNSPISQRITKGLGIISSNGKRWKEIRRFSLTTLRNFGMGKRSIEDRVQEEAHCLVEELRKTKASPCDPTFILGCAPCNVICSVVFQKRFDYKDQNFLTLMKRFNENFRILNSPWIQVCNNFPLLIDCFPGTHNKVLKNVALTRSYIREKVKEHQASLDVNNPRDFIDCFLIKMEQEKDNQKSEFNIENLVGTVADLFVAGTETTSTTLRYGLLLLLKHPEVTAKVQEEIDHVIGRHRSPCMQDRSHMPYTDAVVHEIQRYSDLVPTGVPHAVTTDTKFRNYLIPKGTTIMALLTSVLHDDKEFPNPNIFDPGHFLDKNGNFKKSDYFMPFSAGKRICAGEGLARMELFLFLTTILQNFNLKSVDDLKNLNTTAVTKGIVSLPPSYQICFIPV

CYP2C9 = CYP2C9 (Homo sapiens, UniProt P11712); test: as above; details: read-out: Inhibition, IC50; HLM, CYP2C9 probe substrate
Sequence of CYP2C9 (P11712 whole entry): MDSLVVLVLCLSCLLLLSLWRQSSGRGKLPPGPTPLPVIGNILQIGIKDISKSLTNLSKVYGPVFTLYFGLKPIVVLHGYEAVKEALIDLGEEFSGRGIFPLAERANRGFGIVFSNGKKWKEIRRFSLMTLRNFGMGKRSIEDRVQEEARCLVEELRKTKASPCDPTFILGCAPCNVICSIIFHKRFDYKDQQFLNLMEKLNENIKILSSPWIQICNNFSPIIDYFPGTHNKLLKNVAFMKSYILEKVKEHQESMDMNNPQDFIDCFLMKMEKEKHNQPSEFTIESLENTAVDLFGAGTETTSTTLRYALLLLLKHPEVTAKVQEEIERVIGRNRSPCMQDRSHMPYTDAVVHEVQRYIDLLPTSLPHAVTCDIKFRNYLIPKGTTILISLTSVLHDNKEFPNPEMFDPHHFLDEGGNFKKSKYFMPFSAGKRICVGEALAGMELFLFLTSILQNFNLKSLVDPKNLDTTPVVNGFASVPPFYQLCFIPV

CYP2C19 = CYP2C19 (Homo sapiens, UniProt P33261); test: as above; details: read-out: Inhibition, IC50; HLM, CYP2C19 probe substrate
Sequence of CYP2C19 (P33261 whole entry): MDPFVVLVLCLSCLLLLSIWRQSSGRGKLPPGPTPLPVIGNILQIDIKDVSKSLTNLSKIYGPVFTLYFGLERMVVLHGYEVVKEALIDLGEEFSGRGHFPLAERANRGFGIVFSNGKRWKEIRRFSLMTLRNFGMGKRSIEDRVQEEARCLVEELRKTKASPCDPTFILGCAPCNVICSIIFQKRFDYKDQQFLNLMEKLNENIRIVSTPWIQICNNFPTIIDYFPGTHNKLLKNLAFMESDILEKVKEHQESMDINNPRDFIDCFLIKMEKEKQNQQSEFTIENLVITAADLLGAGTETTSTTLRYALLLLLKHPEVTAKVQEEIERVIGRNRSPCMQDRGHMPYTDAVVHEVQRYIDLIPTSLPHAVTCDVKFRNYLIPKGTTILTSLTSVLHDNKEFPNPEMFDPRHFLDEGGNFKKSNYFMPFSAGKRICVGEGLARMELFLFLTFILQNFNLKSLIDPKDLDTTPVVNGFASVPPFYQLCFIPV

CYP2D6 = CYP2D6 (Homo sapiens, UniProt P10635); test: as above; details: read-out: Inhibition, IC50; HLM, CYP2D6 probe substrate
Sequence of CYP2D6 (P10635 whole entry): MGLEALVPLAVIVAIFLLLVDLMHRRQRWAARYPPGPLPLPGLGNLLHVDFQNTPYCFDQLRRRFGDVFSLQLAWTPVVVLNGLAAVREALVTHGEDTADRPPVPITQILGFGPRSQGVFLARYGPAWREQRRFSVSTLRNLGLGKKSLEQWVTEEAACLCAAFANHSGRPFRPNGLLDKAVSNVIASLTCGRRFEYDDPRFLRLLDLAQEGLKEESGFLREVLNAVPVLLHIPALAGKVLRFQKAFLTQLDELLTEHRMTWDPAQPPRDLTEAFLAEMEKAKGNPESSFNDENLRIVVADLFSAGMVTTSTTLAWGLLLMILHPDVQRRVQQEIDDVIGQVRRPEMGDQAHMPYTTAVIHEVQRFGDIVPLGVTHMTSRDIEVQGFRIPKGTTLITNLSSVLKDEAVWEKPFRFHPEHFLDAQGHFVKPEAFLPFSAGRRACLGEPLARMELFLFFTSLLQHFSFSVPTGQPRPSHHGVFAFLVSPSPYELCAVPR

CYP2E1 = CYP2E1 (Homo sapiens, UniProt P05181); test: as above; details: read-out: Inhibition, IC50; HLM, CYP2E1 probe substrate
Sequence of CYP2E1 (P05181 whole entry): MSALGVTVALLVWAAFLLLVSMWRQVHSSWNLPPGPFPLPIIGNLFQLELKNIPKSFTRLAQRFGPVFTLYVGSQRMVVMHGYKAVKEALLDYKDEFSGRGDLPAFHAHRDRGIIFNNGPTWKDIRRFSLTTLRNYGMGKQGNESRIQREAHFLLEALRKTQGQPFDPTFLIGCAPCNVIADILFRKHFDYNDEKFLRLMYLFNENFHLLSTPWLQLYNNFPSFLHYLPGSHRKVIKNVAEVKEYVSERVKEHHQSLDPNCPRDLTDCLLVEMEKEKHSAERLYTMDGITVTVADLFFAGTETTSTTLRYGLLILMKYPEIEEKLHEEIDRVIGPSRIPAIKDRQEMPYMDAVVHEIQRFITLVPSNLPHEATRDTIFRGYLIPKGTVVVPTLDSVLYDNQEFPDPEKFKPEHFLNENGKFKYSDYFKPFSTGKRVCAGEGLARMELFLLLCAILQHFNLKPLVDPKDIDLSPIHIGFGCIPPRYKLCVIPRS

Sequence of CYP3A4 (P08684 2-503): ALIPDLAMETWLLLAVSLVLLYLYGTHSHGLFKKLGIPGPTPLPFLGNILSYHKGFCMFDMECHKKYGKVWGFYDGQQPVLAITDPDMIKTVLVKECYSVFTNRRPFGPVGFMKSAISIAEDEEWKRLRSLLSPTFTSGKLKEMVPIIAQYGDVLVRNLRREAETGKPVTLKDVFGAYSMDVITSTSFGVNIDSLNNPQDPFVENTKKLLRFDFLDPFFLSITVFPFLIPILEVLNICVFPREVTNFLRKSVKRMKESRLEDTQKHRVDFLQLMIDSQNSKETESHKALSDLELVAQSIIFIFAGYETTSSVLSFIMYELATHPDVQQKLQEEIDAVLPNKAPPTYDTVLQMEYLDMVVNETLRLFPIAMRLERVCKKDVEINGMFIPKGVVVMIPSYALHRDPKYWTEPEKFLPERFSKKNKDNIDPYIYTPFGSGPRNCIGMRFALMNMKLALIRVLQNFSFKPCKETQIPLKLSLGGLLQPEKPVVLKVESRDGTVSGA

With `COc1ncccc1Nc1cc2nc3ccccc3n(-c3ccc(OC(F)(F)F)cc3)c-2cc1=NC1CCC(OC)CC1` (centres unmarked) [TBI-166, Pyrifazimine] the “Mean plasma concentration at three hours after oral administration” value (from here on “Mean plasma concentration at three hours”) ([1]; BDQ + TBI-166 group, W4) was 1.38302 ± 0.41159 µg/mL, the “Mean plasma concentration at three hours” value ([1]; BDQ + TBI-166 group, W8) was 1.3304 ± 0.13372 µg/mL and the “Mean plasma concentration at three hours” value ([1]; BDQ group (25 mg/kg), W4, LLOQ 5, 5, 15 ng/mL for BDQ, TBI-166, M2) was “<LLOQ”. The “Mean plasma concentration at three hours” value ([1]; BDQ group (25 mg/kg), W8, LLOQ 5, 5, 15 ng/mL for BDQ, TBI-166, M2) was “<LLOQ”, the “Mean plasma concentration at three hours” value ([1]; TBI-166 group (20 mg/kg), W4, LLOQ 5, 5, 15 ng/mL for BDQ, TBI-166, M2) was 1.37579 ± 0.12354 µg/mL and the “Mean plasma concentration at three hours” value ([1]; TBI-166 group (20 mg/kg), W8, LLOQ 5, 5, 15 ng/mL for BDQ, TBI-166, M2) was 1.32376 ± 0.31189 µg/mL. The “inhibitor strength class for CYP3A4 pathway” value (CYP3A4; based on IC50 with testosterone) was “moderate (1 µM < IC50 < 10 µM)”, the IC50 (CYP3A4; CYP3A4 MDZ (midazolam as probe substrate)) was 17.4 µM and the IC50 (CYP3A4; CYP3A4 TEST (testosterone as probe substrate)) was 2.65 µM. The “AUC(0-t)” value ([2]; Lung, BDQ + TBI-166 group) was 321.07 ± 52.91 µg·h/g, the “tissue-to-plasma ratio (Kp)” value ([2]; Lung, BDQ + TBI-166 group) was 5.17 and the “AUC(0-t)” value ([2]; Lung, TBI-166 group) was 378.66 ± 104.67 µg·h/g. The “tissue-to-plasma ratio (Kp)” value ([2]; Lung, TBI-166 group) was 5.49, the “AUC(0-t)” value ([2]; Spleen, BDQ + TBI-166 group) was 483.54 ± 94.75 µg·h/g and the “tissue-to-plasma ratio (Kp)” value ([2]; Spleen, BDQ + TBI-166 group) was 7.79. For the same molecule, the “AUC(0-t)” value ([2]; Spleen, TBI-166 group) was 296.09 ± 27.68 µg·h/g, the “tissue-to-plasma ratio (Kp)” value ([2]; Spleen, TBI-166 group) was 4.29 and the “exposure (AUC0-t) with vs without coadministration” value ([2]; lungs) was “similar”. The “increase of exposure (AUC0-t) after coadministration of BDQ with TBI-166” value ([2]; spleens) was 1.5 fold, the “Stability in mice plasma, RE” value ([3]; 4℃ for 24 h, 15 ng/mL) was -15.07% and the “Stability in mice plasma, RE” value ([3]; 4℃ for 24 h, 75 ng/mL) was 1.87%. For the same molecule, the “Stability in mice plasma, RE” value ([3]; 4℃ for 24 h, 750 ng/mL) was -12.65%, the “Stability in mice plasma, RE” value ([3]; -40℃ for 7 d, 15 ng/mL) was -2.20% and the “Stability in mice plasma, RE” value ([3]; -40℃ for 7 d, 75 ng/mL) was -1.01%. The “Stability in mice plasma, RE” value ([3]; -40℃ for 7 d, 750 ng/mL) was -13.53%, the “Stability in mice plasma, RE” value ([3]; Freeze-thaw three cycles, 15 ng/mL) was -14.27% and the “Stability in mice plasma, RE” value ([3]; Freeze-thaw three cycles, 75 ng/mL) was -5.39%. The “Stability in mice plasma, RE” value ([3]; Freeze-thaw three cycles, 750 ng/mL) was -13.50%, the “Stability in mice plasma, RE” value ([3]; In auto-sample for 24 h, 15 ng/mL) was 18.87% and the “Stability in mice plasma, RE” value ([3]; In auto-sample for 24 h, 75 ng/mL) was -12.61%. For the same molecule, the “Stability in mice plasma, RE” value ([3]; In auto-sample for 24 h, 750 ng/mL) was -7.77%, the “Stability in mice plasma, RE” value ([3]; Room temperature for 24 h, 15 ng/mL) was -6.20% and the “Stability in mice plasma, RE” value ([3]; Room temperature for 24 h, 75 ng/mL) was -6.81%. For the same molecule, the “Stability in mice plasma, RE” value ([3]; Room temperature for 24 h, 750 ng/mL) was -10.81%, the IC50 (CYP1A2) was 0.55 µM and the IC50 (CYP2A6) was 1.38 µM. The IC50 (CYP2C8) was greater than 50 µM, the IC50 (CYP2C9) was 5.45 µM and the IC50 (CYP2C19) was 4.49 µM. For the same molecule, the IC50 (CYP2D6) was 1.6 µM and the IC50 (CYP2E1) was 0.93 µM.
